# Test results: EP2799533A1, “Protease and inhibitor containing water-soluble films” (Novozymes A/S, priority 2013, dated 2014)
# How the values were obtained:
# Format in all cases: biochemical
# [1] = target: T1, Savinase (Lederbergia lenta, UniProt P29600); assay: Residual enzymatic activity of protease in water-soluble film after film production
# T1 construct: purchased Novozymes A/S, Denmark
# T1 sequence (P29600 1-269): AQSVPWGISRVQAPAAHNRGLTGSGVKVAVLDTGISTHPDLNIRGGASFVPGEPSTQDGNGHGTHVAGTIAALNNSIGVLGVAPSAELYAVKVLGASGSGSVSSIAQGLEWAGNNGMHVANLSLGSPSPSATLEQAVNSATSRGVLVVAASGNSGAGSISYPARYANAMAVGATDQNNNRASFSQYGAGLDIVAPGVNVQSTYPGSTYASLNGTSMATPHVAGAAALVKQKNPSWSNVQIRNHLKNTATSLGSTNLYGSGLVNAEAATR
# Protocol: (§1) We prepared two different enzyme containing water-soluble films, as outlined in Table 1 below. The films were produced under normal film production conditions. Later, the films were analyzed to estimate the enzymatic activity remaining after the production process, i.e., the percentage of residual enzymatic activity in the final film product, as compared to the amount of enzyme added in the production process.
# The protease used for preparing the films was Savinase (Novozymes A/S, Denmark), which was added to obtain a final concentration of 1.1 % wt active enzyme protein in both of the water-soluble films.
# (§2) The protease inhibitor used was 4-formyl-phenyl-boronic acid (4-FPBA), which was added to obtain a final concentration of 0.5% wt in one of the water-soluble films.
# (§3) Since the humidity of the samples was not controlled, some of the absolute values from the analysis are above 100%. However, all film samples were treated identically and analyzed at the same time, and therefore the relative improvement by using the protease inhibitor can be calculated. Table 1. The data are based on an average of three analyses of each film.
# [2] = system: Stainzyme; assay: Residual enzymatic activity of amylase in water-soluble film after film production
# Protocol: as §1
# The amylase used was Stainzyme (Novozymes A/S, Denmark), which was added to obtain a final concentration of 0.1 % wt active enzyme protein in both of the films.
# as §2, §3
# [3] = system: Mannaway; assay: Residual enzymatic activity of mannanase in water-soluble film after film production; settings: Mannanase (Mannaway, 0.03% wt) in film with Savinase protease; 0.5% wt 4-FPBA; vs. amount of enzyme added; average of three analyses; film without 4-FPBA: 1%
# Protocol: as §1
# The mannanase used was Mannaway (Novozymes A/S, Denmark), which was added to obtain a final concentration of 0.03% wt active enzyme protein in both of the films.
# as §2, §3
smiles,measurement,setting,value
"O=Cc1ccc(B(O)O)cc1 [4-FPBA, 4-formyl-phenyl-boronic acid]",Residual activity in film made with 4-FPBA,"[1]; Protease (Savinase, 1.1 % wt) in film also holding amylase and mannanase, 0.5% wt 4-FPBA, vs. amount of enzyme added, average of three analyses, film without 4-FPBA: 87%",93%
same,Relative improvement by using inhibitor,"[1]; Protease, film with 0.5% wt 4-FPBA vs. film without 4-FPBA",7%
same,Residual activity in film made with 4-FPBA,"[2]; Amylase (Stainzyme, 0.1 % wt) in film with Savinase protease, 0.5% wt 4-FPBA, vs. amount of enzyme added, average of three analyses, humidity not controlled, values above 100%, film without 4-FPBA: 106%",114%
same,Relative improvement by using inhibitor,"[2]; Amylase, film with 0.5% wt 4-FPBA vs. film without 4-FPBA",8%
same,Residual activity in film made with 4-FPBA,[3],63%
